Consider one compound from patent US20100179185A1, “Novel Aminothienopyridinone Derivatives Processes for Preparing Them and Pharmaceutical Compositions Thereof” (UCB PHARMA, S.A., priority 2006, published 2010).

Assay [1] deals with LPS stimulated TNF release in rat. As to the kind of experiment: Rat LPS induced TNF release. The class given is in vivo. Particulars: 1.5 h, male Lewis rats, LPS 1 mg/kg i.v., plasma TNFα at 90 minutes, compound dosed p.o. The method, then: Male Lewis rats (180-200 g) are anaesthetized with Isofluor and injected i.v. with LPS (1 mg/kg) in a volume of 0.5 ml sterile saline. After 90 minutes blood is collected into heparin tubes for preparation of plasma samples. Plasma is stored at −80° C. prior to assay for TNFα by commercial ELISA.

The test system of assay [2] is LPS stimulated release of TNF from Human whole blood. As to the kind of experiment: LPS stimulation of whole blood, TNF-α release (ELISA). Particulars: LPS 1 μg/ml, 18 hours, 37° C., n=12. The class given is cell-based. The method, then:
Inhibitor stocks (10 mM) are kept as a frozen solution (−20° C.) in DMSO. Serial dilutions of inhibitors are prepared in DMSO as 200-times concentrated stocks. Inhibitors are diluted 1 in 200 into tissue culture media, prewarmed to 37° C. and transferred to plates containing PBMC. PBMC and inhibitors are incubated together for 30 mins prior to addition of LPS. Inhibitors used in whole blood assays are prepared according to a different regime. Using the same stock solution, serial dilutions of inhibitors are prepared in DMSO. Inhibitors (14) are then diluted 1 in 500 straight into whole blood. Inhibitor is incubated with whole blood for 30 mins prior to the addition of LPS.
Whole blood is taken by venous puncture using heparinised vacutainers (Becton Dickinson), and 500 μl of blood aliquoted into each well of a 96 deep well plate. After the addition of inhibitor, blood is stimulated with an optimal dose of LPS (E coli strain B5:055, Sigma, at a final concentration of 1 μg ml^−1) and incubated at 37° C. without CO2 for 18 hours. TNF-α levels are measured from cell free supernatants by sandwich ELISA (R&D Systems, # DY210).
(An ELISA detects its analyte on a solid surface through an enzyme-linked reagent.)

A word on the ED50: it is the dose that gives a 50% effect, or the effect in half of the subjects. Higher therefore signals weaker potency. For orientation: IC50 means the concentration that gives 50% inhibition. As to `Cc1cccc(Nc2c(C(=O)N3CCC[C@@H]3CO)sc3c2ccc(=O)n3-c2c(F)cccc2F)n1` [Compound 1], the median effective dose (ED50) in assay [1] is under 10 mg/kg. Moreover, in assay [2], the IC50 was 30 to 200 nM.
